These results are taken from patent publication US8859549B2, “Potassium channel modulators” (AbbVie, Inc., priority 2011, dated 2014).

What is called EC50 is the concentration giving half of the maximal effect. Low readings indicate greater potency, high ones weaker potency.

This assay has as its target T1, KCNQ 2/3 channels (Homo sapiens, UniProt O43525+O43526).
T1 construct: expressed in transfected cells; host or cells: HEK293
Nature of the assay: KCNQ 2/3 channel activation, thallium flux FLIPR assay (BTC-AM dye). Type of assay: cell-based. Particulars: for Emax: HEK293, maximum response relative to the response of 10 μM retigabine (set at 100%), HEK293 KCNQ2/KCNQ3 cells, read-out: % MAX; for EC50: HEK293 cells stably expressing human KCNQ2 and KCNQ3 subunits, thallium-induced fluorescence, 4 min compound incubation. As for the experimental part:
The following example describes the assay that can be used to identify compounds that activate KCNQ 2/3 channels.
HEK293 cells stably expressing human KCNQ2 and KCNQ3 subunits were seeded in 96-well, black-walled, clear-bottomed, poly-D-lysine coated plates (BD Biosciences, Bedford, Mass.) at a density of 1×10^5 cells per well 24 hours before the assay. On the assay day, BTC-AM dye (Invitrogen, Carlsbad, Calif.) was loaded into the cells by replacing the cell culture medium with 55 μL/well of 3 μg/mL dye in DPBS. Dye loading was allowed to proceed for 2 hours at room temperature and then cells were washed twice with 50 μL/well of assay buffer (in mM: 10 HEPES pH 7.3, 5 glucose, 140 Na-gluconate, 2.5 K-gluconate, 3.6 Ca-gluconate, 2 MgSO4, 0.1 Ouabain) to remove unloaded dye. Cells were incubated in 50 μL of assay buffer before loading onto a FLIPR system (Molecular Devices, Sunnyvale, Calif.). Various concentrations of compounds to be assayed were added to the cells in 50 μL of assay buffer and incubated for 4 minutes. The fluorescence signal was initiated by adding 100 μL of assay buffer containing 6 mM TlNO3 and 10 mM K2SO4. Fluors were excited using the 488-nm line of an argon laser and emission was filtered using a 540±30 nm bandpass filter. Fluorescent signals were recorded for 3 minutes. Sums of the responses over basal responses were plotted versus concentrations of test compounds to obtain an EC50 value. The maximum response for each test compound was determined relative to the response produced by 10 μM retigabine. The maximum response of retigabine at 10 μM was set at 100%.

As to `CC(C)(C)NC(=O)Cc1nn(NC(=O)Cc2ccc(Cl)cc2)c(=O)c2ccccc12` [Example 122, N-{4-[2-(tert-butylamino)-2-oxoethyl]-1-oxophthalazin-2(1H)-yl}-2-(4-chlorophenyl)acetamide], the Emax worked out at 14.2%.

For the molecule `Cc1cccc(CC(=O)Nn2nc(S(=O)(=O)c3ccccc3)c3ccccc3c2=O)c1` [Example 207, 2-(3-methylphenyl)-N-[1-oxo-4-(phenylsulfonyl)phthalazin-2(1H)-yl]acetamide], the Emax was 69.9% and the EC50 stood at 306 nM.

As to `O=C(CC1CC2CCC1C2)Nn1nc(-c2ccccn2)c2ccccc2c1=O` (racemic) [Example 19, (±)-2-[(exo)-bicyclo[2.2.1]hept-2-yl]-N-[1-oxo-4-(pyridin-2-yl)phthalazin-2(1H)-yl]acetamide], the Emax amounted to 146% and a half-maximal effect (EC50) was put at 168 nM.

As to `O=C(Cc1ccc(Cl)cc1)Nn1nc(Sc2ccccc2)c2ccccc2c1=O` [Example 58, 2-(4-chlorophenyl)-N-[1-oxo-4-(phenylsulfanyl)phthalazin-2(1H)-yl]acetamide], the Emax turned out to be 120% and the EC50 was determined as 82.6 nM.

For `CC(C)(C)OC(=O)NCc1nn(NC(=O)CC2CCC(F)(F)CC2)c(=O)c2ccccc12` [Example 124, tert-butyl[(3-{[(4,4-difluorocyclohexyl)acetyl]amino}-4-oxo-3,4-dihydrophthalazin-1-yl)methyl]carbamate], the Emax was 72.5% and the EC50 was found to be 8050 nM.

As to `O=C(CC1CCOC1)Nn1nc(N2CCOCC2)c2ccccc2c1=O` (centres unmarked) [Example 66, N-[4-(morpholin-4-yl)-1-oxophthalazin-2(1H)-yl]-2-(tetrahydrofuran-3-yl)acetamide], the Emax is 3.89%.

Consider `O=C(Cc1cc(F)cc(F)c1)Nn1nc(N2CCCCC2)c2ccccc2c1=O` [Example 22, 2-(3,5-difluorophenyl)-N-[1-oxo-4-(piperidin-1-yl)phthalazin-2(1H)-yl]acetamide], for which the Emax amounted to 134% and the EC50 is 87.5 nM.

Consider `O=C(Cc1cccc([N+](=O)[O-])c1)Nn1nc(N2CCOCC2)c2ccccc2c1=O` [Example 156, N-[4-(morpholin-4-yl)-1-oxophthalazin-2(1H)-yl]-2-(3-nitrophenyl)acetamide], for which the Emax came out at 32.8%.

For the molecule `O=C(Cc1ccc(-c2ccccc2)cc1)Nn1nc(N2CCOCC2)c2ccccc2c1=O` [Example 158, 2-(biphenyl-4-yl)-N-[4-(morpholin-4-yl)-1-oxophthalazin-2(1H)-yl]acetamide], the Emax is 6.84%.

As to `CC(C)(C)CNC(=O)Cc1nn(NC(=O)Cc2ccc(Cl)cc2)c(=O)c2ccccc12` [Example 123, 2-(4-chlorophenyl)-N-[4-{2-[(2,2-dimethylpropyl)amino]-2-oxoethyl}-1-oxophthalazin-2(1H)-yl]acetamide], the Emax is 13%.

As for `O=C(CC1CC2CCC1C2)Nn1nc(Nc2cccc(Cl)c2)c2ccccc2c1=O` (racemic) [Example 35, (±)-2-[(exo)-bicyclo[2.2.1]hept-2-yl]-N-{4-[(3-chlorophenyl)amino]-1-oxophthalazin-2(1H)-yl}acetamide], the Emax came to 11.4%.

For the molecule `O=C(Cc1ccc(Cl)cc1)Nn1nc(CNC(=O)OCC(F)(F)F)c2ccccc2c1=O` [Example 129, 2,2,2-trifluoroethyl[(3-{[(4-chlorophenyl)acetyl]amino}-4-oxo-3,4-dihydrophthalazin-1-yl)methyl]carbamate], the Emax is 33.7% and the EC50 is 1280 nM.

For the molecule `O=C(Cc1ccccc1F)Nn1nc(N2CCOCC2)c2ccccc2c1=O` [Example 148, 2-(2-fluorophenyl)-N-[4-(morpholin-4-yl)-1-oxophthalazin-2(1H)-yl]acetamide], the Emax worked out at 18.7%.

As to `CC1CN(c2nn(NC(=O)CC(C)(C)c3ccccc3)c(=O)c3ccccc23)CC(C)O1` (centres unmarked) [Example 61, N-[4-(2,6-dimethylmorpholin-4-yl)-1-oxophthalazin-2(1H)-yl]-3-methyl-3-phenylbutanamide], the Emax came out at 123% and the EC50 was 228 nM.

For `COC(=O)N[C@H](C(=O)NCc1nn(NC(=O)Cc2ccc(Cl)cc2)c(=O)c2ccccc12)C(C)C` [Example 183, methyl[(2S)-1-{[(3-{[(4-chlorophenyl)acetyl]amino}-4-oxo-3,4-dihydrophthalazin-1-yl)methyl]amino}-3-methyl-1-oxobutan-2-yl]carbamate], the Emax was 5.96%.

For the molecule `O=C(Cc1cccc(Cl)c1)Nn1nc(S(=O)(=O)c2ccccc2)c2ccccc2c1=O` [Example 209, 2-(3-chlorophenyl)-N-[1-oxo-4-(phenylsulfonyl)phthalazin-2(1H)-yl]acetamide], the Emax was found to be 80.9% and the midpoint of the response, the EC50, lay at 77.4 nM.

For the molecule `O=C(Cc1ccccc1Cl)Nn1nc(N2CCOCC2)c2ccccc2c1=O` [Example 151, 2-(2-chlorophenyl)-N-[4-(morpholin-4-yl)-1-oxophthalazin-2(1H)-yl]acetamide], the Emax amounted to 7.89%.

For `O=C(Cc1ccc(Cl)c(Cl)c1)Nn1nc(N2CCOCC2)c2ccccc2c1=O` [Example 177, 2-(3,4-dichlorophenyl)-N-[4-(morpholin-4-yl)-1-oxophthalazin-2(1H)-yl]acetamide], the Emax was 131% and the EC50 stood at 628 nM.

Regarding `O=C(CC1CC2CCC1C2)Nn1nc(N2CCOCC2)c2ccccc2c1=O` (racemic) [Example 3, (±)-2-[(exo)-bicyclo[2.2.1]hept-2-yl]-N-[4-(morpholin-4-yl)-1-oxophthalazin-2(1H)-yl]acetamide], the Emax came to 142% and a half-maximal effect (EC50) was put at 331 nM.

Consider `O=C(CC1CC2CCC1C2)Nn1nc(C2CCOCC2)c2ccccc2c1=O` (racemic) [Example 28, (±)-2-[(exo)-bicyclo[2.2.1]hept-2-yl]-N-[1-oxo-4-(tetrahydro-2H-pyran-4-yl)phthalazin-2(1H)-yl]acetamide], for which the Emax stood at 145% and the EC50 turned out to be 447 nM.

Consider `O=C(CC1CC2CCC1C2)Nn1nc(C(=O)O)c2ccccc2c1=O` (racemic) [Example 55, (±)-3-{[(exo)-bicyclo[2.2.1]hept-2-ylacetyl]amino}-4-oxo-3,4-dihydrophthalazine-1-carboxylic acid], for which the Emax is 149% and the EC50 was 1370 nM.

Take `O=C(Cc1cccc(F)c1)Nn1nc(N2CCOCC2)c2ccccc2c1=O` [Example 149, 2-(3-fluorophenyl)-N-[4-(morpholin-4-yl)-1-oxophthalazin-2(1H)-yl]acetamide]: the Emax was 82.7% and the midpoint of the response, the EC50, lay at 5280 nM.

Turning to `CC(C)(CC(=O)Nn1nc(S(=O)(=O)c2ccc(C#N)cc2)c2ccccc2c1=O)c1ccccc1` [Example 225, N-{4-[(4-cyanophenyl)sulfonyl]-1-oxophthalazin-2(1H)-yl}-3-methyl-3-phenylbutanamide], the Emax amounted to 37.3% and it took 146 nM to reach a half-maximal effect (EC50).

Turning to `O=C(Cc1ccc(Cl)cc1)Nn1nc(S(=O)(=O)c2ccc(Br)cc2)c2ccccc2c1=O` [Example 199, N-{4-[(4-bromophenyl)sulfonyl]-1-oxophthalazin-2(1H)-yl}-2-(4-chlorophenyl)acetamide], the Emax stood at 79.2% and the response was half-maximal at 48.9 nM (EC50).

As to `O=C(Cc1ccc(OC(F)(F)F)cc1)Nn1nc(N2CCOCC2)c2ccccc2c1=O` [Example 132, N-[4-(morpholin-4-yl)-1-oxophthalazin-2(1H)-yl]-2-[4-(trifluoromethoxy)phenyl]acetamide], the Emax came to 105% and it took 1690 nM to reach a half-maximal effect (EC50).

For `O=C(Cc1cc(F)cc(F)c1)Nn1nc(Cc2ccc(Cl)nc2)c2ccccc2c1=O` [Example 31, N-{4-[(6-chloropyridin-3-yl)methyl]-1-oxophthalazin-2(1H)-yl}-2-(3,5-difluorophenyl)acetamide], the Emax amounted to 72.1% and it took 330 nM to reach a half-maximal effect (EC50).

On to `O=C(Cc1cc(F)cc(F)c1)Nn1nc([S+]([O-])c2ccccc2)c2ccccc2c1=O` (centres unmarked) [Example 83, 2-(3,5-difluorophenyl)-N-[1-oxo-4-(phenylsulfinyl)phthalazin-2(1H)-yl]acetamide], for which the Emax was found to be 105% and the EC50 amounted to 1100 nM.

For `CN(Cc1ccccc1)c1nn(NC(=O)Cc2cc(F)cc(F)c2)c(=O)c2ccccc12` [Example 53, N-{4-[benzyl(methyl)amino]-1-oxophthalazin-2(1H)-yl}-2-(3,5-difluorophenyl)acetamide], the Emax came out at 147% and the response was half-maximal at 132 nM (EC50).

Turning to `O=C(Cc1cccc(C(F)(F)F)c1)Nn1nc(S(=O)(=O)c2ccccc2)c2ccccc2c1=O` [Example 208, N-[1-oxo-4-(phenylsulfonyl)phthalazin-2(1H)-yl]-2-[3-(trifluoromethyl)phenyl]acetamide], the Emax is 33.3%.

Consider `O=C(CC1CC2CCC1C2)Nn1nc(Cc2cc[n+]([O-])cc2)c2ccccc2c1=O` (racemic) [Example 100, (±)-2-[(exo)-bicyclo[2.2.1]hept-2-yl]-N-{4-[(1-oxidopyridin-4-yl)methyl]-1-oxophthalazin-2(1H)-yl}acetamide], for which the Emax came out at 53.4% and the response was half-maximal at 916 nM (EC50).
